Earlier results, collected in patent publication US5610177A, “Acylated amino acids as endothelin antagonists” (Warner-Lambert Company, priority 1994, dated 1997).
Where a SMILES comes first, the peptide text is derived from it. Where no end group is shown, it is not given here. [ ]: non-standard residue; d: D form.

Columns and labels:
ETA receptor [1] = conditions: conscious rats; cited from earlier work
ETA receptor [2] = conditions: rats, i.v.; cited from earlier work
Endothelin receptor [3] = conditions: i.v., cited from earlier work
[4] = test system: Endothelin receptor subtype-A; conditions: intravenous infusion; cited from earlier work
[5] = test system: Endothelin receptor subtype-A; conditions: intravenous infusion, stroke prone spontaneous hypertensive rats; cited from earlier work
ETA receptor [6] = conditions: rabbit retinal arteries, i.v.; cited from earlier work
Endothelin receptor [7] = conditions: rat model; cited from earlier work
[8] = conditions of hypoglycemia; cited from earlier work
liver = conditions: cited from earlier work
[9] = local intra-arterial administration, rats; cited from earlier work

CC(C)C[C@@H]1NC(=O)[C@@H](C(C)C)NC(=O)[C@@H]2CCCN2C(=O)[C@@H](CC(=O)O)NC(=O)[C@@H](Cc2c[nH]c3ccccc23)NC1=O [BQ-123] (cyclo(L[dW][dD]P[dV]))
antagonism of ET-1 induced pressor response (ETA receptor [1]): effective in antagonizing the ET-1 induced pressor response | renal vascular resistance (ETA receptor [2]): blocked | mitochondrial Ca2+ accumulation (Endothelin receptor [3]; early phase of ischemic acute renal failure in rats): prevents the mitochondrial [Ca^2+ ] accumulation | protection of proximal tubular cells (Endothelin receptor [3]; ischemic acute renal failure in rats): protects proximal tubular cells from post-ischemic degeneration | prevention of acute hypoxia induced pulmonary hypertension [4]: effective in the prevention of acute hypoxia induced pulmonary hypertension | blood pressure [5]: decreased blood pressure significantly | ET-1 induced vasoconstriction (ETA receptor [6]): blocked | acute CsA toxicity (Endothelin receptor [7]): suppressed

ET-3: one of a family of structurally similar bicyclic peptides (CTCFTYKDKECVYYCHLDIIW; not fully specified (bridges); cysteine pairing not given here; UniProt P14138 97-117, looked up)
striatal damage [8]: accelerate the development of striatal damage

Endothelin
hepatic vasoconstriction and glucose output (liver): sustained vasoconstriction of the hepatic vasculature and a significant increase in hepatic glucose output | small intestinal mucosal damage [9]: induce small intestinal mucosal damage in rats in a dose-dependent manner
